Data set [1] relates to cryopreserved human hepatocytes. The note with it: for HμREL clearance CLhurel: flow 4.5 μL/min/chip, 30,000 hepatocytes per chamber, 100 μL; for Depletion of the parent compound, HμREL device: human hepatocytes under flow, at 24 h.
Data set [2] shares this test system. The note with it: at 24 h.
For data set [3] the following is noted: human, known in vivo clearance values; ref literature (citation not given); cited from earlier work.

The structures appear in SMILES notation. Marks after values point to notes of the source that are not given here.

Consider `O=C1CC2(CCCC2)CC(=O)N1CCCCN1CCN(c2ncccn2)CC1` [Buspirone, buspirone], for which the “HμREL clearance CLhurel” value in data set [1] is 3.13 μL/min/chip.
Take `Cn1c(=O)c2c(ncn2C)n(C)c1=O` [Caffeine, caffeine]: in data set [1], the “HμREL clearance CLhurel” value was 0.01^a μL/min/chip and the “Depletion of the parent compound, HμREL device” value was “did not show significant depletion”. Also, the “Depletion of the parent compound, static culture system” value in data set [2] is recorded as “did not show significant depletion”.
Regarding `NC(=O)N1c2ccccc2C=Cc2ccccc21` [Carbamazepine, carbamazepine], in data set [3], the In vivo clearance is recorded as 1.3 ± 0.5 mL/min/kg. Moreover, the “Depletion of the parent compound, HμREL device” value in data set [1] is on record as “did not show significant depletion”. Besides, the “Depletion of the parent compound, static culture system” value in data set [2] is on record as “did not show significant depletion”.
Turning to `CCCc1nn(C)c2c(=O)[nH]c(-c3cc(S(=O)(=O)N4CCN(C)CC4)ccc3OCC)nc12` [Sildenafil, sildenafil], the In vivo clearance in data set [3] is 6.0 ± 1.1 mL/min/kg. Further, the “HμREL clearance CLhurel” value in data set [1] is on record as 1.13 μL/min/chip.
For `CC(C)(C)NC[C@H](O)COc1nsnc1N1CCOCC1` [Timolol, timolol], the In vivo clearance in data set [3] is 7.7 ± 1.2 mL/min/kg. In addition, in data set [1], the “HμREL clearance CLhurel” value was 0.35 μL/min/chip.

The values above are taken from PMC4487512 (Biochemical pharmacology, 2009).
